One assay deals with collagen IV. The assay is described as follows: Immunolabeling of basal membrane collagen (type IV) on frozen cuts of isolated hairs. Format: cell-based, human. As to the method: (§1) Study of the stimulating activity of tetrapeptide AcSDKP on the growth of isolated hairs maintained in a state of ex vivo survival. This study was conducted on 66 human hair explants obtained from scalp-plasty.
(§2) Hairs comprised of hair follicles were isolated by micro dissection and individually placed in wells (96-well culture plate) and maintained in survival for 15 days under conventional tissue culturing conditions (37° C., 5% CO2) in Williams medium.
(§3) Tetrapeptide AcSDKP added to the culture medium was tested at three concentrations: 10^−4 M, 10^−7 M and 10^−10 M. Minoxidil® (2,4-diamino 6-piperidinopyrimidine 3-oxide) at a concentration of 10^−5 M was used as a positive control.
(§4) Culture mediums containing the compounds to be tested were renewed every three days.
(§5) On D8 and D15 of treatment, six hairs from each batch (untreated control, Minoxidil®, +AcSDKP 10^−4 M, +AcSDKP 10^−7 M, +AcSDKP 10^−10 M) were removed and prepared for histological study.
(§6) Three explants from each batch were fixed in ordinary Bouin and the three other hairs were frozen and stored at −80° C.
(§7) In addition to measurements of the length of each hair, the general morphology of each hair was analysed and the expression of laminin 5 and collagen IV, two constituents of the basal membrane, was evaluated. Moreover, immunolabeling with anti-Ki67 antibodies (nuclear protein expressed in growing cells) was carried out of cells in mitosis in order to establish the mitotic index of follicle structures.
Immunolabeling of type IV collagen was carried out on frozen cuts of the control hairs and hairs treated with AcSDKP or Minoxidil® in order to quantify this constituent of the basal membrane which separates the dermal compartment from the epithelial compartment.

The subject of assay [1] is neo-keratinocytes / epithelial sheaths of isolated hairs. The assay is described as follows: General morphology of histological cuts of isolated hairs (Masson Trichromium): neo-keratinocytes, epithelial sheaths. Type of assay: cell-based, human. As to the method: as §1, §2, §3, §4, §5, §6, §7
Analysis of the general morphology of histological cuts stained with Masson Trichromium focusing on the area between the opening of the sebaceous glands and the hair bulb.
Hairs cultured on D0 naturally undergo changes during survival as is observed after an in vivo graft. The restructuring effect of AcSDKP was visualised through the appearance of neo-keratinocytes along the conjunctival sheath which migrate from the bulge and to a lesser extent from the bulb, two regions where stem cells are found. […] This effect leads to clear appearance of neo-keratinocytes along the length of the hair, from the epidermis to the bulb. The structure of the neo-keratinocytes formed in this way is uniform and stratified. It varies as a function of treatment time and AcSDKP concentration. The clearest activity was found on D15 of treatment with AcSDKP at 10^−10 M.

A further assay concerns laminin 5. The assay is described as follows: Immunolabelling of laminin 5 in isolated hairs. Format: cell-based, human. The protocol: Study of the stimulating activity of tetrapeptide AcSDKP on the growth of isolated hairs maintained in a state of ex vivo survival. This study was conducted on 66 human hair explants obtained from scalp-plasty. Hairs comprised of hair follicles were isolated by micro dissection and individually placed in wells (96-well culture plate) and maintained in survival for 15 days under conventional tissue culturing conditions (37° C., 5% CO2) in Williams medium. Tetrapeptide AcSDKP added to the culture medium was tested at three concentrations: 10^−4 M, 10^−7 M and 10^−10 M. Minoxidil® (2,4-diamino 6-piperidinopyrimidine 3-oxide) at a concentration of 10^−5 M was used as a positive control. Culture mediums containing the compounds to be tested were renewed every three days. On D8 and D15 of treatment, six hairs from each batch (untreated control, Minoxidil®, +AcSDKP 10^−4 M, +AcSDKP 10^−7 M, +AcSDKP 10^−10 M) were removed and prepared for histological study. Three explants from each batch were fixed in ordinary Bouin and the three other hairs were frozen and stored at −80° C. In addition to measurements of the length of each hair, the general morphology of each hair was analysed and the expression of laminin 5 and collagen IV, two constituents of the basal membrane, was evaluated. […]

For assay [2], the system named is isolated human hair explants (hair follicles). The assay is described as follows: Growth (length) of isolated human hairs maintained in ex vivo survival. Type of assay: cell-based. The protocol: as §1, §2, §3, §4
Hairs were photographed using a microscope and a CCD camera coupled to acquisition software and archiving.
Each hair was measured on D0, D3, D6, D8, D10, D13 and D15 using a LEICA IM1000 measurement module to give measurements in μm.
Each hair was photographed and its length evaluated using software giving values in μm.

The subject of assay [3] is cells in mitosis (Ki67) in the epithelial sheath of hair. The assay is described as follows: Cell proliferation: anti-Ki67 immunolabeling of cells in mitosis along the epithelial sheath of isolated hairs. Type of assay: cell-based, human. The protocol: as §1, §2, §3, §4, §5, §6, §7
This study was conducted on cuts of frozen hairs.

The subject of another assay is keratin 19 (CK19). The assay is described as follows: Immunolabeling of keratin 19 (CK19), epithelial stem cell marker, on frozen cuts of isolated hairs. Format: cell-based, human. As to the method:
as §1, §2, §3, §4, §5, §6
Immunolabeling of keratin 19 (CK19) was carried out on frozen cuts of control hairs and hairs treated with AcSDKP or Minoxidil® in order to evaluate the proportion of undifferentiated primitive cells (or even stem cells) present in the external epithelial sheaths of the hair follicles. […]

Residues, ends and D or L forms follow the SMILES beside them.

For `Nc1cc(N2CCCCC2)nc(N)[n+]1[O-]` [Minoxidil ®, 2,4-diamino 6-piperidinopyrimidine 3-oxide, reference compound], the “Collagen IV expression” value in the assay with collagen IV (hair treated with Minoxidil) is recorded as “often less evident”. In assay [1] (D8, Minoxidil), the “Adherence of epithelial sheaths to collagen” value was “more or less detached”. Besides, in assay [1] (D8, Minoxidil 10 μM), the Neo-keratinocyte sites result is reported as “absent”. Moreover, the “Neo-keratinocyte structure compared to untreated hair” value in assay [1] (D15, Minoxidil 10^−5 M) is “slightly more structured”.

As to `CC(=O)N[C@@H](CO)C(=O)N[C@@H](CC(=O)O)C(=O)N[C@@H](CCCCN)C(=O)N1CCC[C@H]1C(=O)O` [AcSDKP, CH3CO-Ser-Asp-Lys-Pro-OH] (Ac-SDKP-OH), the “Laminin 5 increase in the median zone of hair” value in the assay on laminin 5 (D8, AcSDKP 10^−10 M) is given as “considerably more marked”. For the same molecule, the “Expression of laminin 5” value in the assay with laminin 5 (D15, AcSDKP 10^−7 M) is “higher”. The “Increase in collagen IV levels” value in the assay with collagen IV (D8 and D15, AcSDKP 10^−10 M) is “all the more marked”. Moreover, the “Collagen IV expression in the bulb and median section of hair” value in the assay with collagen IV (as of D8, AcSDKP at the three concentrations tested) is given as “very clear increase in collagen IV”. Further, in assay [2] (10^−10 M in culture medium, D15 of treatment), the “Hair growth (length of hair)” value is reported as “significantly stimulates hair growth”. In assay [2] (higher concentrations (10^−4 M, 10^−7 M), D15), the “Hair growth (length of hair shafts)” value is reported as “no significant difference”. For the same molecule, in assay [1] (AcSDKP in the culture medium, as of D8 of treatment), the “Restructuring of the epithelial sheaths” value is given as “leads to restructuring of the epithelial sheaths”. Besides, in assay [1] (D8, AcSDKP 10^−4 M), the “Adherence of epithelial sheaths to collagen” value is recorded as “more or less detached” and the Neo-keratinocyte sites result is on record as “absent”. The “Adherence of epithelium to the underlying collagen” value in assay [1] (D8, the two active concentrations (10^−7 M and 10^−10 M)) is reported as “adheres fully”. In addition, in assay [1] (D15, AcSDKP 10^−4 M, 10^−7 M and especially 10^−10 M), the Neo-keratinocyte structure thickness result is on record as “increasingly thicker”. Besides, the “Increase in number of cells in mitosis compared to control hair” value in assay [3] (10^−10 M, D8 of treatment) is on record as “+300%”. In assay [3] (AcSDKP 10^−7 M, D8), the “Average number of cells in mitosis per mm of hair” value is 34 per mm of hair. Further, the “Number of cells in mitosis in treated hair compared to control hair” value in assay [3] (three concentrations tested (10^−4 M, 10^−7 M, 10^−10 M)) is on record as “significantly increases the number of cells in mitosis”. Besides, in the assay on keratin 19 (CK19) (D8 and D15, AcSDKP 10^−10 M), the “Increase in CK19 levels” value is reported as “maximal”. Also, in the assay with keratin 19 (CK19) (hair kept in survival in presence of the tetrapeptide), the “Expression of CK19 compared to control hair and Minoxidil-treated hair” value is “significantly greater”.

The record behind these values is patent US20090048182A1, “Cosmetic Use of at Least One Natural Ac-N-Ser-Asp-Lys-Pro-Tetrapeptide or One of Its Analogues as Agent for Slowing Down Loss of Hair and/or Stimulating Hair Growth” (CENTRE NATIONAL DE LA RECHERCHE SCIENTIFQUE (CNRS, priority 2005, published 2009).
